In data set [1] the test system is S. aureus. Put plainly: Antimicrobial screening, zone of inhibition. The following applies: for S. aureus %Activity Index: 1 mg/mL; for zone of inhibition at 1000 µg/mL: Staphylococcus aureus, isolated compounds 1 mg/mL, read-out: S. aureus Diameter of Inhibition Zone (mm). It is filed as cell-based. The protocol:
(§1) The procedure was performed according to […] et al.. A comparison of the extract's zone of inhibition to that of a reference antibiotic's activity index was determined using the following equation:Activity index = (the inhibition zone of extract/the inhibition zone of the standard) × 100

For data set [2], the system named is E. coli. Put plainly: Antimicrobial screening, zone of inhibition. It is filed as cell-based. Conditions: for E. coli %Activity Index: 1 mg/mL; for zone of inhibition at 1000 µg/mL: Escherichia coli, isolated compounds 1 mg/mL, read-out: E. coli Diameter of Inhibition Zone (mm). How it is done: as §1
Data set [3] is described as follows: ABTS antioxidant assay. It is filed as biochemical. Set-up: IC50 in ABTS assay: unit not given beside the values. Conditions: for IC50 in ABTS assay: unit not given. How it is done: The experiment was performed in triplicate according to Zaky et al.. The absorbance of control of the resulting green-blue solution (ABTS* radical solution) was recorded at λ max 734 nm.

Data set [4] concerns P. aeruginosa. Put plainly: Antimicrobial screening, zone of inhibition. It is filed as cell-based. Conditions: Table 1; for zone of inhibition at 1000 µg/mL: Pseudomonas aeruginosa, isolated compounds 1 mg/mL, read-out: P. aeruginosa Diameter of Inhibition Zone (mm); for P. aeruginosa %Activity Index: 1 mg/mL, relative to ciprofloxacin. How it is done:
The procedure was performed according to Stylianakis et al.. A comparison of the extract’s zone of inhibition to that of a reference antibiotic’s activity index was determined using the following equation:Activity index = (the inhibition zone of extract/the inhibition zone of the standard) × 100

The test system of data set [5] is C. albicans. As to the kind of experiment: Antimicrobial screening, zone of inhibition. It is filed as cell-based. The following applies: for zone of inhibition at 1000 µg/mL: Candida albicans, isolated compounds 1 mg/mL, read-out: C. Albicans Diameter of Inhibition Zone (mm); for C. Albicans %Activity Index: 1 mg/mL. How it is done:
as §1

Data set [6] is described as follows: Cytotoxic activity (MTT assay), normal cells. The data set is classed as cell-based. Conditions: human. The protocol:
(§2) The HPLC was performed in the Institute for Plant Biology, TU Braunschweig, using a Young Lin quaternary pump, vacuum degasser, column oven (40 °C), diode array detector (YL9160 PDA), and a Midas Spark Holland autosampler. UV spectra (λ max) were measured in the central laboratory of the Faculty of Pharmaceutical Science at Mansoura University using spectroscopic methanol with an ultraviolet-visible spectrophotometer (Shimadzu 1601 PC, version TCC-240A, Kyoto, Japan). The NMR unit of Mansoura University’s Faculty of Pharmacy obtained nuclear magnetic resonance spectra (^1H-NMR, ^13C-NMR, DEPT-Q, APT, HSQC, and HMBC) using a Bruker DRX 600 NMR spectrometer (600 and 150 MHz for ^1H and ^13C-NMR, respectively) and with the Bruker Corporation Avance III 400 spectrometer, which measures ^1H and ^13C-NMR at 400 and 100 MHz, respectively. The types of solvents that are used are CDCl3, CD3OD, and DMSO-d6. For normal phase chromatography, silica gel G 60–230 mesh (Merck, Darmstadt, Germany) was packed using a wet or dry method in the specified solvent. The purchase of Normal Human lung fibroblast (WI-38), hepatic cancer cell lines (HePG-2), and mammary gland (MCF-7) cell lines from ATCC was made possible by the Holding firm for biological goods and vaccines (VACSERA), which is based in Cairo, Egypt.
(§3) Using the MTT test, the inhibitory effects of substances on cell growth were ascertained using the cell lines compared to normal lung fibroblast cells (WI-38). The selectivity index was calculated via the Selectivity index (SI) equation: SI equals IC50 normal/IC50 cancer.

The test system of data set [7] is HepG-2 cancer cell line. As to the kind of experiment: Cytotoxic activity (MTT assay). The data set is classed as cell-based. The following applies: for IC50: Homo sapiens; for Selectivity Index HepG2: IC50 normal (WI-38)/IC50 cancer. How it is done:
as §2, §3
For orientation: Formazan colour is commonly taken as a measure of viable cells.

Data set [8] has as its system MCF-7 cancer cell line. As to the kind of experiment: Cytotoxic activity (MTT assay). Conditions: for IC50: Homo sapiens; for Selectivity Index MCF-7: IC50 normal (WI-38)/IC50 cancer. It is filed as cell-based. The protocol:
as §2, §3

[9] abbreviates: Table S1, relative to ampicillin standard.
Where [10] appears, read: Table S1, extracts and fractions 1 mg/mL.
[11] abbreviates: Table 1, relative to clotrimazole.
Where [12] appears, read: HepG2, read-out: In Vitro Cytotoxicity IC50 (µg/mL) HepG-2.
Setting [13] is: MCF7, read-out: In Vitro Cytotoxicity IC50 (µg/mL) MCF-7.
Setting [14] is: Table 1, relative to ciprofloxacin.

These results are taken from article PMC11507441, “Oilseed Cakes: A Promising Source of Antioxidant, and Anti-Inflammatory Agents—Insights from Lactuca sativa” (International Journal of Molecular Sciences, 2024).

Each structure is given as a SMILES string. Converted amounts (≈) assume the structure as drawn. Read-outs that look alike come from different tables or passages of the source.

In the case of `CC1(C)S[C@@H]2[C@H](NC(=O)[C@H](N)c3ccccc3)C(=O)N2[C@H]1C(=O)O` [Ampicillin, ampicillin, reference compound], in data set [1] (setting [9]), the “S. aureus %Activity Index” value came to 100%. The “S. aureus Diameter of inhibition zone (mm)” value in data set [1] (setting [10]) is given as 22.87±0.15 mm. Besides, the “E. coli %Activity Index” value in data set [2] (setting [9]) came to 100%. The “E. coli Diameter of inhibition zone (mm)” value in data set [2] (setting [10]) worked out at 23.9 ± 0.15 mm.
For the molecule `O=C1O[C@H]([C@@H](O)CO)C(O)=C1O` [Ascorbic acid], the “IC50 in ABTS assay” value in data set [3] (fractions of lettuce seedcake extract) came out at 29.47 ± 0.17. In data set [3] (seed cakes' methanolic extract at 1 mg/mL), the “% inhibition in ABTS assay” value is reported as 88.1%.
Broadly, the zone of inhibition is the size of the clear area around the sample on an inoculated plate. In the case of `O=C(O)c1cn(C2CC2)c2cc(N3CCNCC3)c(F)cc2c1=O` [Ciprofloxacin, ciprofloxacin, reference compound], the zone of inhibition at 1000 µg/mL is 22.87 ± 0.15 mm in data set [4] and 26 ± 0.3 mm in data set [2] (Table 1).
For the molecule `Clc1ccccc1C(c1ccccc1)(c1ccccc1)n1ccnc1` [Clotrimazole, clotrimazole, reference compound], the zone of inhibition at 1000 µg/mL in data set [5] (Table 1) was found to be 26.9 ± 0.1 mm. Moreover, the “C. Albicans %Activity Index” value in data set [5] (setting [11]) came out at 100%; in data set [5] (Table S1, relative to clotrimazole standard) it was 100%. In addition, the “C. Albicans Diameter of inhibition zone (mm)” value in data set [5] (setting [10]) was 25.9±0.1 mm.
In the case of `O=c1cc(-c2ccc(O)c(O)c2)oc2cc(O)cc(O)c12` [Compound 2, luteolin], the IC50 came to 59.3 ± 3.2 µg/mL (≈ 207 µM) in data set [6], 19.5 ± 1.3 µg/mL (≈ 68.1 µM) in data set [7] (setting [12]) and 11.6 ± 0.9 µg/mL (≈ 40.6 µM) in data set [8] (setting [13]). The “Selectivity Index HepG2” value in data set [7] was 3. Besides, the “Selectivity Index MCF-7” value in data set [8] turned out to be 5.1. Besides, the zone of inhibition at 1000 µg/mL was 12.9 ± 0.1 mm in data set [4], 10.7 ± 0.15 mm in data set [5] (Table 1), 17 ± 0.1 mm in data set [1] (Table 1) and 9.8 ± 0.2 mm in data set [2] (Table 1). The “P. aeruginosa %Activity Index” value in data set [4] was 56.6%. Besides, in data set [5] (setting [11]), the “C. Albicans %Activity Index” value is on record as 40.5%. The “S. aureus %Activity Index” value in data set [1] (setting [14]) was 71.7%. In data set [2] (setting [14]), the “E. coli %Activity Index” value was found to be 37.8%.
`O=c1cc(-c2ccc(O)c(O)c2)oc2cc(O[C@@H]3O[C@H](CO)[C@@H](O)[C@H](O)[C@H]3O)cc(O)c12` [Compound 3, luteolin 7-O-β-D-glucoside]: the IC50 in data set [6] worked out at 49.6 ± 2.7 µg/mL (≈ 111 µM); in data set [7] (setting [12]), 24.8 ± 1.9 µg/mL (≈ 55.4 µM); in data set [8] (setting [13]) it was 17.8 ± 1.3 µg/mL (≈ 39.7 µM). Further, the “Selectivity Index HepG2” value in data set [7] is 2. In addition, the “Selectivity Index MCF-7” value in data set [8] was found to be 2.8. For the same molecule, the zone of inhibition at 1000 µg/mL in data set [4] was determined as 11.8 ± 0.25 mm; in data set [5] (Table 1), 9.87 ± 0.15 mm; in data set [1] (Table 1), 14.8 ± 0.15 mm; in data set [2] (Table 1) it was 8.8 ± 0.15 mm. In data set [4], the “P. aeruginosa %Activity Index” value turned out to be 51.5%. The “C. Albicans %Activity Index” value in data set [5] (setting [11]) was 36.7%. Also, the “S. aureus %Activity Index” value in data set [1] (setting [14]) amounted to 61.9%. Moreover, the “E. coli %Activity Index” value in data set [2] (setting [14]) was 33.8%.
For the molecule `O=c1cc(-c2ccc(O)cc2)oc2cc(O[C@@H]3O[C@H](CO)[C@@H](O)[C@H](O)[C@H]3O)cc(O)c12` [Compound 4, apigenin 7-O-β-D-glucoside], the IC50 was determined as 84.3 ± 4.3 µg/mL (≈ 195 µM) in data set [6] (MTT, normal cells, read-out: In Vitro Cytotoxicity IC50 (µg/mL) WI-38); 43.4 ± 2.5 µg/mL (≈ 100 µM) in data set [7] (setting [12]); 39.8 ± 2.2 µg/mL (≈ 92 µM) in data set [8] (setting [13]). The “Selectivity Index HepG2” value in data set [7] is listed as 1.9. In addition, the “Selectivity Index MCF-7” value in data set [8] was determined as 2.1. Besides, the zone of inhibition at 1000 µg/mL in data set [4] was 9.8 ± 0.15 mm; in data set [5] (Table 1), 5.95 ± 0.07 mm; in data set [1] (Table 1), 11.9 ± 0.15 mm; in data set [2] (Table 1) it was 6.8 ± 0.15 mm. The “P. aeruginosa %Activity Index” value in data set [4] was 42.8%. Besides, the “IC50 in ABTS assay” value in data set [3] (isolated compounds from lettuce seedcake) is reported as 51.27 ± 0.25. Also, the “C. Albicans %Activity Index” value in data set [5] (setting [11]) was 22.1%. For the same molecule, in data set [1] (setting [14]), the “S. aureus %Activity Index” value came to 50%. In addition, the “E. coli %Activity Index” value in data set [2] (setting [14]) was 26.1%.
For `CCC(CC[C@@H](C)C1CCC2C3CC=C4C[C@@H](O[C@@H]5O[C@H](CO)[C@@H](O)[C@H](O)[C@H]5O)CC[C@]4(C)C3CC[C@@]21C)C(C)C` (stereo partly drawn) [Compound 5, β-sitosterol 3-O-β-D-glucoside], the IC50 in data set [6] (WI-38 normal lung fibroblast cells, MTT, normal cells, read-out: In Vitro Cytotoxicity IC50 (µg/mL) WI-38) was 34.8 ± 2.1 µg/mL (≈ 60.3 µM); in data set [7] (HepG2, MTT, read-out: In Vitro Cytotoxicity IC50 (µg/mL) HepG-2) it was 63.6 ± 3.4 µg/mL (≈ 110 µM); in data set [8] (MCF7, MTT, read-out: In Vitro Cytotoxicity IC50 (µg/mL) MCF-7), 52.8 ± 2.9 µg/mL (≈ 91.5 µM). Moreover, the “Selectivity Index HepG2” value in data set [7] came to 0.54. For the same molecule, in data set [8], the “Selectivity Index MCF-7” value came to 0.66. The zone of inhibition at 1000 µg/mL was determined as 7.9 ± 0.1 mm in data set [4], 4.9 ± 0.1 mm in data set [5] (Table 1), 10.8 ± 0.2 mm in data set [1] (Table 1) and 5.1 ± 0.1 mm in data set [2] (Table 1). The “P. aeruginosa %Activity Index” value in data set [4] came out at 34.5%. In data set [5] (setting [11]), the “C. Albicans %Activity Index” value was found to be 18.2%. In addition, in data set [1] (setting [14]), the “S. aureus %Activity Index” value is 49.6%. Also, the “E. coli %Activity Index” value in data set [2] (setting [14]) is listed as 19.6%.
For `COc1cccc2c1C(=O)c1c(O)c3c(c(O)c1C2=O)C[C@@](O)(C(=O)CO)C[C@@H]3O[C@H]1C[C@H](N)[C@H](O)[C@H](C)O1` [Doxorubicin, doxorubicin, reference compound], the IC50 in data set [7] (setting [12]) turned out to be 4.5 ± 0.2 µg/mL (≈ 8.28 µM).
